Measured values from patent US20020045271A1, “COMPOUNDS AND METHODS FOR IDENTIFYING COMPOUNDS THAT INTERACT WITH MICROSOMAL TRIGLYCERIDE TRANSFER PROTEIN BINDING SITES ON APOLIPOPROTEIN B AND MODULATE LIPID BIOSYNTHESIS” (LICATA AND TYRRELL P.C., priority 1998, published 2002).

How the values were obtained:
[1] = molecular target: T1, LDL/MTP binding (Bos taurus, UniProt P55156); assay: Effect of compounds on binding of LDL to immobilized MTP (ELISA); design: species or system human
T1 sequence (P55156 12-887): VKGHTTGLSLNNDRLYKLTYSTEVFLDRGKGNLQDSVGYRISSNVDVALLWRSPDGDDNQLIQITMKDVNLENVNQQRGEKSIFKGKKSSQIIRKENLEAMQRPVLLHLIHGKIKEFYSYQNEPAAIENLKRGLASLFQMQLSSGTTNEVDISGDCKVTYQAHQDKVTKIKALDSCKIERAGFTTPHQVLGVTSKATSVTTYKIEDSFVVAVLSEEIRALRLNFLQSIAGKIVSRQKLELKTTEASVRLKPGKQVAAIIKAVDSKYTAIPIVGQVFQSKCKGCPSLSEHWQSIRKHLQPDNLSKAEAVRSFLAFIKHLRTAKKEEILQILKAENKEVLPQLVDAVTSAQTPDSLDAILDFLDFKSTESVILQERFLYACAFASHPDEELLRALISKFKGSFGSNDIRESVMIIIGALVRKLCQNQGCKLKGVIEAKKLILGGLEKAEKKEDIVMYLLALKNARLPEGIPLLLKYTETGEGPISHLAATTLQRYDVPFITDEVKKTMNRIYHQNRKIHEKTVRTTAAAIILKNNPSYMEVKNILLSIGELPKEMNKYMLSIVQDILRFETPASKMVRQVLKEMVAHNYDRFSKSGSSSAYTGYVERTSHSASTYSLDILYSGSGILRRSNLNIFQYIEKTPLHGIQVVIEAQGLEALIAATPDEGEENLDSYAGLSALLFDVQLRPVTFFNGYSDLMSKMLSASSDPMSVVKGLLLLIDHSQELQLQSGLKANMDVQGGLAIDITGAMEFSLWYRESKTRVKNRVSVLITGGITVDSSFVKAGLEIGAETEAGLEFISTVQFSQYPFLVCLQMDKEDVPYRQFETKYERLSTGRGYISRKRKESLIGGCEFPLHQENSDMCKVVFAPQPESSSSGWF
T1 sequence (P05307 21-510 partner): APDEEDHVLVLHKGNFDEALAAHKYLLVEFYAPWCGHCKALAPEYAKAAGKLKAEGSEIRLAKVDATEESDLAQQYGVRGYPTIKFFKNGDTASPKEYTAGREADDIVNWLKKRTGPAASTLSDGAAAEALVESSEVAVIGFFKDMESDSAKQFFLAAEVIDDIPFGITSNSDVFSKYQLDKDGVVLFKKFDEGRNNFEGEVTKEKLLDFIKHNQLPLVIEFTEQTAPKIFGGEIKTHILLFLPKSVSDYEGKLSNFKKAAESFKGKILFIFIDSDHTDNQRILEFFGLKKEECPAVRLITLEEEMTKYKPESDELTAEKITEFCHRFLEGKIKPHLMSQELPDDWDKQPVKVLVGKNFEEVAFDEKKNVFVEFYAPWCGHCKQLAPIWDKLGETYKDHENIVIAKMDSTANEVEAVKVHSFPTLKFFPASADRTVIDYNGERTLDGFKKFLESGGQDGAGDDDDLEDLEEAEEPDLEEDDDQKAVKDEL
Experimental: (§1) Studies were performed to determine whether apoB/MTP binding was required for secretion of apoB-containing lipoproteins. Several compounds were screened. In the absence of any test compound, 15.47 fmol of low density lipoproteins (LDL)which contain ApoB was bound to immobilized MTP. Two test compounds, AGI-3 and AGI-S17, inhibited 70 to 90% of the binding at 40-50 μM concentrations. […] The effect of these same compounds on MTP's lipid transfer activity was also evaluated. BMS-200150 inhibited triglyceride transfer activity by 60% at concentrations in the range of 20 to 50 μM. AGI-3 inhibited only 20-30% of the activity at these same concentrations.
ELISA plates coated in triplicate with purified heterodimeric MTP (1 μg/well) were incubated with human LDL (1 μg/well) in the presence of indicated concentrations of various compounds. Microtiter wells were washed three times with PBS-Tween and apoB bound was quantitated by a sandwich ELISA (Hussain, M. M. et al. 1995 Arterioscl. Thronb. Vasc. Biol. 15:485-494). In parallel, a standard curve for apoB was generated by coating wells with a monoclonal antibody, 1D1, and incubating with different concentrations of LDL (0-14 ng/well) as previously described (Hussain, M. M. et al. 1995 Arterioscl. Thromb . Vasc. Biol. 15:485-494).

[2] = molecular target: T2, MTP (Bos taurus, UniProt P55156); assay: MTP triglyceride transfer activity; type: biochemical; settings: 20 to 50 μM
T2 sequence (P55156 12-887): T1 sequence (P55156 12-887)
T2 sequence (P05307 21-510 partner): T1 sequence (P05307 21-510 partner)
Experimental: as §1

[3] = molecular target: T1, LDL/MTP binding; assay: Effect of lipid vesicles on binding of LDL to immobilized MTP; settings: for effect of inclusion in PC vesicles on PC-stimulated binding of LDL to MTP: added to PC vesicles
Experimental: The effect of lipids on the binding of MTP with apoB was also examined. Phosphatidylcholine (PC) and sphingomyelin increased the interactions by 2 and 1.5 times respectively. In similar studies, PC vesicles at a concentration of 2.4 mM increased the binding of LDL to MTP by 2 to 4 times. As a control, the effect of phospholipids on the binding of LDL to the monoclonal antibody 1D1 and polyclonal antibodies was studied. 1D1 binds to a portion of the MTP specific binding site on apoB. This antibody also recognizes all subclasses of VLDL and LDL, as well as delipidated apoB. […] The effect of PC vesicles on the interaction of apoB to polyclonal antibodies was studied by incubating immobilized LDL with the antibodies both in the presence and absence of PC. PC vesicles had no effect on binding.
To study the effect of triglycerides (TG) on apoB/MTP specific binding, PC vesicles or emulsions containing two different concentrations of TG were prepared and their effect on LDL binding to MTP was compared with those of PC vesicles with no TG.
The effect of different lipids was studied in more detail using PC-based vesicles (Table 3). Again, PC vesicles increased the binding of LDL to MTP by 3-fold.
Required amounts of lipids in chloroform were added to a glass vial and the solvent was evaporated under nitrogen gas. A calculated amount of the buffer (15 mM Tris-HCl, 1 mM EDTA, 0.02% sodium azide, pH 7.4) was added, and the contents were sonicated (setting 5, output 50-60%) on ice until the solution was mostly clear. The vesicles were then centrifuged at 3500 rpm for 15 minutes, 4° C., and the supernatant used to assay the effect of vesicles on binding.
LDL (20 nM) was incubated with immobilized MTP (1 μg/ml) in the presence and absence of different concentrations of PC or sphingomyelin vesicles for 2 hours at 37° C. and the amount of LDL bound quantitated. The amount of LDL bound in the absence of lipid vesicles was used as 100%. Parallel experiments were also performed wherein LDL (78 pM) was incubated with immobilized monoclonal antibody, 1D1, instead of MTP. LDL (20 nM) was also incubated with immobilized MTP in the presence of different concentrations of PC, PC/TG (molar ratio 400:1) vesicles, or PC/TG dispersions (molar ratio 1:1) for 2 hours at 37° C., and the amount of apoB bound was quantitated by ELISA.

[4] = molecular target: T3, immobilized LDL (Homo sapiens, UniProt P04114); assay: Binding of 125I-MTP / MTP fractions to immobilized LDL
Experimental: The effect of phospholipids on the kinetic parameters of apoB-MTP binding was examined. […] No significant binding of LDL to MTP could be observed at low concentrations (≦3 nM) in the absence of vesicles. However, the effect of vesicles was significant at ≦12.5 nM of LDL. […] In four other experiments, decreases in Kd ranged between 1.5- to 3-fold. The effect of phospholipid vesicles on the binding of ^125I-MTP to immobilized LDL was also examined.
To study the binding of lipid associated MTP with LDL, peaks A, B, and C were pooled, dialyzed and then used to study binding to immobilized LDL. The binding of lipid-poor MTP (peak B), which might have acquired few lipid molecules during its incubation with lipid vesicles, to LDL was increased (70%, P<0.005) compared to the binding of MTP not incubated with lipids (peak A). […] These studies indicate that lipid-associated MTP binds better to LDL as compared to lipid-poor and lipid-free MTP. It is believed that MTP forms stable complexes with phospholipid vesicles and these MTP/lipid complexes have higher affinity for apoB.
Target sequence in this assay (P04114 28-4563, one chain of several): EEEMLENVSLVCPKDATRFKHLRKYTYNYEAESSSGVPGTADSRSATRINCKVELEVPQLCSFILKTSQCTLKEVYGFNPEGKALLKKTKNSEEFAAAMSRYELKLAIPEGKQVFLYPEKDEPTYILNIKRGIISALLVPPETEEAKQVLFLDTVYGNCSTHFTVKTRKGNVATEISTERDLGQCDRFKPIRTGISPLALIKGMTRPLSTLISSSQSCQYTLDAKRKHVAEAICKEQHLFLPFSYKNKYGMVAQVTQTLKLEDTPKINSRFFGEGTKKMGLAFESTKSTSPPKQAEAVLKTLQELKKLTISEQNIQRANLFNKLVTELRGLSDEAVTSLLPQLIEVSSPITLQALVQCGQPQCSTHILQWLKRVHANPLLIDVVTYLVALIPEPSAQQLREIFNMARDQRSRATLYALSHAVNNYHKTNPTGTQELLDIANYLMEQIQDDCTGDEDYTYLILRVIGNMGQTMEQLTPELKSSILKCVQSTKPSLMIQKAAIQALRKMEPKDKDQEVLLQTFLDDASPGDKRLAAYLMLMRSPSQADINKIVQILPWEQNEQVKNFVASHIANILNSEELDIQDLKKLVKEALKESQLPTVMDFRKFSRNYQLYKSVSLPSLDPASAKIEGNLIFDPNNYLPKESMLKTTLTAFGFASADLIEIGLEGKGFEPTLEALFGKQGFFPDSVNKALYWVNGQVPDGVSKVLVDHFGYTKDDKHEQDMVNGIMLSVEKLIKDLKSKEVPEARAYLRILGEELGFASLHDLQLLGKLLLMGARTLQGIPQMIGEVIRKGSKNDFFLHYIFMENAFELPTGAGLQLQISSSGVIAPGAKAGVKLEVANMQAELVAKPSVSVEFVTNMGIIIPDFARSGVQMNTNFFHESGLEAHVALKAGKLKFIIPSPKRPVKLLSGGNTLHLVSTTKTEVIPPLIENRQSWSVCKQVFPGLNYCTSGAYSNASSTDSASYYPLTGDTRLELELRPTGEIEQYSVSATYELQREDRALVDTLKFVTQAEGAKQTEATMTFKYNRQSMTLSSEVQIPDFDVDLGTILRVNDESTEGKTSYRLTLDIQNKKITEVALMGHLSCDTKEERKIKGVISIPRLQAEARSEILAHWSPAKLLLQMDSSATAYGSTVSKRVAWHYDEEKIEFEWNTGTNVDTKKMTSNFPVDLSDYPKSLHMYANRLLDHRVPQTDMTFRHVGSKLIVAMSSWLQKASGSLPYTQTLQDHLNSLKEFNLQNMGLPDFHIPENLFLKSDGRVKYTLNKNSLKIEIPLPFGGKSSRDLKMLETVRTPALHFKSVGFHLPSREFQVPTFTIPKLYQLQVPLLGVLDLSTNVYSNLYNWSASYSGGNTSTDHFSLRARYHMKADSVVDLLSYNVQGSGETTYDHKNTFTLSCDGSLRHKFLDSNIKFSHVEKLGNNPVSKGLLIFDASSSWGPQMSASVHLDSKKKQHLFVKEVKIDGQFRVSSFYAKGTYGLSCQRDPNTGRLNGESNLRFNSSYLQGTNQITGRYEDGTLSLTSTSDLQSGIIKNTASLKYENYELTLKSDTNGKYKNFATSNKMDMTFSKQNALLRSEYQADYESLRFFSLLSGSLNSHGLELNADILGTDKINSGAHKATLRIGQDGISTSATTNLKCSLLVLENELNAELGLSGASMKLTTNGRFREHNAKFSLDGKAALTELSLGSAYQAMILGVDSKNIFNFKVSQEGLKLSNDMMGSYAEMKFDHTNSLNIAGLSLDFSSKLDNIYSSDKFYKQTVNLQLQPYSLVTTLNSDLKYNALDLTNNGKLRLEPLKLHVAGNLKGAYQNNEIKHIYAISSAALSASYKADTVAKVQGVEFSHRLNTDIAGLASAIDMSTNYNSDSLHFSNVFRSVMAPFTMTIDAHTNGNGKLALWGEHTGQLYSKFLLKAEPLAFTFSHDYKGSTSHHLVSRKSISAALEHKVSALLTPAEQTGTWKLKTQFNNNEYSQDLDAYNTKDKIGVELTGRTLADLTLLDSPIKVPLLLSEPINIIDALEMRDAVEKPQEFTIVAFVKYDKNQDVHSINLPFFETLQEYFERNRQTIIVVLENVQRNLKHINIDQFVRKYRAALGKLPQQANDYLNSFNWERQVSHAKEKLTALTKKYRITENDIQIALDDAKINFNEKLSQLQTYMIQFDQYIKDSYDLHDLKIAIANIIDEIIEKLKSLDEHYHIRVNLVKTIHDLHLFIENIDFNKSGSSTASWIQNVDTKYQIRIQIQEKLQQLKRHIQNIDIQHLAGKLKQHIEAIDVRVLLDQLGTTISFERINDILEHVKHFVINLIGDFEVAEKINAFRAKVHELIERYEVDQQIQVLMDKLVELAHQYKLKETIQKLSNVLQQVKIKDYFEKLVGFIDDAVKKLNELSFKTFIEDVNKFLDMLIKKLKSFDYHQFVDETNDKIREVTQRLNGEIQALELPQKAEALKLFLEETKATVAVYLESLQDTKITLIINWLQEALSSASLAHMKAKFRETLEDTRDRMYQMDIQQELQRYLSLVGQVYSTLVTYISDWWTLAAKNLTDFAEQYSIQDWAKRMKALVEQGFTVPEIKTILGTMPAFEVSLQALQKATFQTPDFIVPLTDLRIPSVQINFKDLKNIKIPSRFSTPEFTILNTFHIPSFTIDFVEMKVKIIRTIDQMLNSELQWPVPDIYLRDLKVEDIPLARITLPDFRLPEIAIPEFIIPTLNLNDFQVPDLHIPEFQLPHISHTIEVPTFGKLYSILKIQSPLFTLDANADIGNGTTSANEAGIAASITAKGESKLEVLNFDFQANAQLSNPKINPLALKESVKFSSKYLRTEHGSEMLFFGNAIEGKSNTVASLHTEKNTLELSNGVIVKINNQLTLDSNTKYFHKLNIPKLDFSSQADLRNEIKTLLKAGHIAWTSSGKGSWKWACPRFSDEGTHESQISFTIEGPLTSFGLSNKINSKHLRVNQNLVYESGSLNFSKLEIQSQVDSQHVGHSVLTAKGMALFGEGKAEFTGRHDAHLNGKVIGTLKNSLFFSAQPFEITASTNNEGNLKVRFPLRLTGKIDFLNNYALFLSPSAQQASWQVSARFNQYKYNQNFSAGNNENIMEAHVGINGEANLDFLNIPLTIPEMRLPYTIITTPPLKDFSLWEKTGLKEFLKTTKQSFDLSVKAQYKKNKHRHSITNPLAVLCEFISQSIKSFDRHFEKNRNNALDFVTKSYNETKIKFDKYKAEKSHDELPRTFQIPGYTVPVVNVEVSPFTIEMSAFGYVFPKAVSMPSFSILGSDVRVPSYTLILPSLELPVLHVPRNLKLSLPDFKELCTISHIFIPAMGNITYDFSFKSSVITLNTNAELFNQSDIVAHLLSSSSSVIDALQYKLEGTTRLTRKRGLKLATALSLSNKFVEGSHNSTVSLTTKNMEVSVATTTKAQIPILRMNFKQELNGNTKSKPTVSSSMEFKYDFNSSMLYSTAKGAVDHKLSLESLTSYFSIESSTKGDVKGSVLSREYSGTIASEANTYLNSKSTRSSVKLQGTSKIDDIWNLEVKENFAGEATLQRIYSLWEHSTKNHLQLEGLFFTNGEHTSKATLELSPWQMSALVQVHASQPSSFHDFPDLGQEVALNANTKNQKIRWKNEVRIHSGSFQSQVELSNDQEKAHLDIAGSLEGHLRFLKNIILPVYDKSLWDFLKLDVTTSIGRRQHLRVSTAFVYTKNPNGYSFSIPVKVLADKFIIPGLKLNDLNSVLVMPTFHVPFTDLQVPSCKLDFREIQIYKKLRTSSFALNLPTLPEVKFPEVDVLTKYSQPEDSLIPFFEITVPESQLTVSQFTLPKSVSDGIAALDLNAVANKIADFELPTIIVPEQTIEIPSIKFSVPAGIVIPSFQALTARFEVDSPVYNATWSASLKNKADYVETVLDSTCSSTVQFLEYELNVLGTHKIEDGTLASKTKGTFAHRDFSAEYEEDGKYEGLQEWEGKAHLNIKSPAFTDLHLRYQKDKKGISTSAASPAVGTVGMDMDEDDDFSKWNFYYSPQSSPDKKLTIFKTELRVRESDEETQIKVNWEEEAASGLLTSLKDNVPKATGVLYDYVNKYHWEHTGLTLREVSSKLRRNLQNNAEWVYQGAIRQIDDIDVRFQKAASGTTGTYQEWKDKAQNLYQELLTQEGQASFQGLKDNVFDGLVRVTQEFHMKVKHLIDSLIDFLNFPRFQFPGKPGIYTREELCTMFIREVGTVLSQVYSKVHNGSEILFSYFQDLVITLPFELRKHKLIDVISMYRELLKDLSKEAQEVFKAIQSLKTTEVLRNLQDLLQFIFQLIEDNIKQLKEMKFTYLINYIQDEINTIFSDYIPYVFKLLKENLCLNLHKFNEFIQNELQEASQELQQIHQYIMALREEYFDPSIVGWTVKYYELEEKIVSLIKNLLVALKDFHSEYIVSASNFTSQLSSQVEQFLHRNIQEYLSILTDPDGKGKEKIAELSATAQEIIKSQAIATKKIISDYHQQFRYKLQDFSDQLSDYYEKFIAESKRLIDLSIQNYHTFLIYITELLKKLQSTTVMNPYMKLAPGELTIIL

[5] = molecular target: T3, immobilized LDL; assay: Binding of apoA-I and apoA-I/lipid complexes to immobilized LDL
Experimental: The binding of apoA-I and apoA-I/lipid complexes to immobilized LDL was examined. ApoA-I incubated with or without lipid vesicles was subjected to ultracentrifugation and apoA-I/lipid complexes were isolated. Binding of apoA-I and apoA-I/lipid complexes to immobilized LDL was then examined.
Target sequence in this assay (P04114 28-4563): as the sequence (P04114 28-4563, one chain of several) above

Question: With O=C1c2ccccc2CN1C1CCN(CCC(c2ccccc2)c2ccccc2)CC1 [BMS-200150] as the molecule, how does the “effect on LDL/MTP binding” value [1] read?
Answer: did not effect LDL/MTP binding

Question: What about the “inhibition of triglyceride transfer activity” value [2] of the same molecule?
Answer: 60%

Question: With phosphatidyl inositol [PI] as the molecule, how does the “effect of inclusion in PC vesicles on PC-stimulated binding of LDL to MTP” value (“effect of inclusion in PC vesicles” below) [3] read?
Answer: significantly decreased

Question: For “peak B: lipid-poor MTP fraction recovered after incubation with PC vesicles, fractions 21-24”, which “increase of binding to immobilized LDL compared to MTP not incubated with lipids (peak A)” value ([4]; P<0.005) is on record?
Answer: 70%

Question: triglycerides [TG] was tested. Which “effect on LDL binding to MTP” value ([3]; PC vesicles with or without TG) did it give?
Answer: no additional effect

Question: How did the “amount bound to LDL compared to MTP alone” value [4] turn out when “peak C: MTP associated with lipid vesicles, fractions 3-9” was run?
Answer: three-fold higher

Question: How did the “binding to immobilized LDL compared to free apoA-I” value [5] turn out when “apoA-I/lipid complexes: apoA-I incubated with lipid vesicles, complexes isolated by ultracentrifugation” was run?
Answer: significantly less

Question: phosphatidyl serine [PS] was tested. Which “effect of inclusion in PC vesicles” value [3] did it give?
Answer: significantly decreased

Question: CC(C)CCC[C@@H](C)[C@H]1CC[C@H]2[C@@H]3CC=C4C[C@@H](O)CC[C@]4(C)[C@H]3CC[C@]12C [cholesterol] was tested. Which “effect of inclusion in PC vesicles” value [3] did it give?
Answer: no additional effect
